{"source": "patent US20230382984A1", "about": "“TRABD PROTEIN, AND MONOCLONAL ANTIBODY THEREOF, AND ISOLATION, AMPLIFICATION AND USE THEREOF” (priority 2022, published 2023)", "key": {"[1]": {"system": "TRABD protease", "details": "cited from earlier work; for function of TRABD protein: divalent metal ion complexing agent; for TRABD protease activity: early study, metal ions"}, "[2]": {"biological_target": "T1, TRABD2A protein (Homo sapiens, UniProt Q86V40)", "T1 sequence (Q86V40 22-480)": "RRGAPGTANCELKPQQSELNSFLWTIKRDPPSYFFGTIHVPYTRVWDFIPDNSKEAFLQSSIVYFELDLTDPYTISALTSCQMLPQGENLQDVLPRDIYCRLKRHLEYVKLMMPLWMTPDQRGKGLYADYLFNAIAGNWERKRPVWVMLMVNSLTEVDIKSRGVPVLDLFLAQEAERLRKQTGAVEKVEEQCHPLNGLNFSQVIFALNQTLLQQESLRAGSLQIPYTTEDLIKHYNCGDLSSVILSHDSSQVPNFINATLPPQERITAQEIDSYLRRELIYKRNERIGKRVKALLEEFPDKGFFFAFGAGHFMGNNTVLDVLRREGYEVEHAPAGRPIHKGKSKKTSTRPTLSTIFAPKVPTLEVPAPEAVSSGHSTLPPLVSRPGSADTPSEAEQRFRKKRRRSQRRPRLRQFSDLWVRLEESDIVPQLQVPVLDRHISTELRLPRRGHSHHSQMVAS", "details": "different view; metal ions; cited from earlier work"}, "[3]": {"biological_target": "T2, TRABD2A metalloprotease on CD8^+ T cells (Homo sapiens, UniProt Q86V40)", "T2 construct": "action of metal ions Mn^2+, Co^2+ and Ni^2+ on TRABD2A metalloprotease on CD8^+ T cells; endogenous in cells", "T2 sequence (Q86V40 22-480)": "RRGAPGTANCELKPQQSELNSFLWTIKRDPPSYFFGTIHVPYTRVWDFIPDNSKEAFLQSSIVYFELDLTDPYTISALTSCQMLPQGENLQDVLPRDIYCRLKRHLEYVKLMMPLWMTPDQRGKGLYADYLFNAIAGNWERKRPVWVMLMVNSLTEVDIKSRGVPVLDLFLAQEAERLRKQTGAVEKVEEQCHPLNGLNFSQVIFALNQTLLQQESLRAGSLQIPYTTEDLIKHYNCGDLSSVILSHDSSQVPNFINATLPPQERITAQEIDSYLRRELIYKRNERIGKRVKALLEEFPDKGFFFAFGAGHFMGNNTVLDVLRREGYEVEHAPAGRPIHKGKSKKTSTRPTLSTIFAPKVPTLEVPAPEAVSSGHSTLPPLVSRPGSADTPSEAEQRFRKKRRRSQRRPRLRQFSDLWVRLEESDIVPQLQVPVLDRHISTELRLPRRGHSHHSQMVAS", "experiment": "Killing activity of CD8+ T cells on target cells after metal cofactor intervention of TRABD2A", "assay_type": "cell-based", "details": "metal cations at different concentrations acting on CD8+ T cells; target cells CEM.T2 and MGC; FIG. 4A", "text": "Since TRABD2A is a metalloprotease and its activity is affected by metal ions, and the metal ion Mn^2+ having an accelerating effect on TRABD2A metalloprotease activity and metal ions Co^2+ and Ni^2+ having an inhibiting effect were examined. The effect of the TRABD2A protein on CD8^+ T cells was observed by the action of metal ions Mn^2+, Co^2+ and Ni^2+ on TRABD2A metalloprotease on CD8^+ T cells."}, "[4]": {"system": "CD8^+ T cells and target cells", "experiment": "CCK8 and flow cytometry detection of toxic effect of metal cations", "details": "concentration of 20 μM", "text": "FIG. 4A show the effect on the target cell killing ability of CD8^+ T cells after metal cofactor intervention of TRABD2A; • A: detection of the killing activity of the CD8^+ T cells on target cells CEM.T2 when metal cations Co^2+, Ni^2+ and Mn^2+ at different concentrations act on CD8^+ T cells; • B: detection of the killing activity of the CD8^+ T cells on target cells MGC when metal cations Co^2+, Ni^2+ and Mn^2+ at different concentrations act on CD8^+ T cells; • C: CCK8 and flow cytometry detection of the toxic effect of metal cations Co^2+, Ni^2+ and Mn^2+ at different concentrations on target cells."}}}
{"smiles": "c1cnc2c(c1)ccc1cccnc12", "note": "[1,10-phenanthroline]", "values": [{"measurement": "function of TRABD protein", "setting": "[1]", "value": "inhibited"}]}
{"smiles": "[Ca+2]", "note": "[Ca^2+]", "values": [{"measurement": "activity of the TRABD2A protein", "setting": "[2]", "value": "independent"}]}
{"smiles": "[Co+2]", "note": "[Co^2+]", "values": [{"measurement": "tumor killing ability of CD8^+ T cells", "setting": "[3]", "value": "enhanced"}, {"measurement": "toxic effect on CD8^+ T cells and target cells", "setting": "[4]", "value": "little toxic effect"}, {"measurement": "activity of the TRABD2A protein", "setting": "[2]", "value": "inhibited"}, {"measurement": "TRABD protease activity", "setting": "[1]", "value": "increase"}]}
{"smiles": "[Cu+2]", "note": "[Cu^2+]", "values": [{"measurement": "TRABD protease activity", "setting": "[1]", "value": "opposite effect"}]}
{"smiles": "O=C(O)CN(CCN(CC(=O)O)CC(=O)O)CC(=O)O", "note": "[EDTA]", "values": [{"measurement": "function of TRABD protein", "setting": "[1]", "value": "inhibited"}]}
{"smiles": "[Fe+3]", "note": "[Fe^3+]", "values": [{"measurement": "activity of the TRABD2A protein", "setting": "[2]", "value": "independent"}]}
